{
  "source": "the METLIN SMRT retention time set (Domingo-Almenara et al. 2019)",
  "data": [
    {"assay": "gradient 5% acetonitrile 3 min, to 50% in 2 min, to 85% in 15 min, held 3 min, 100 µL/min", "conditions": "column: Zorbax Extend-C18 2.1 x 50 mm; eluents: water / acetonitrile, 0.1% formic acid", "method_in_brief": "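Pure standards were analyzed in mixtures of ~100 molecules using HPLC coupled to a quadrupole time-of-flight mass spectrometer, in both positive and negative ionization mode. Separation used a Zorbax Extend-C18 column (2.1 × 50 mm, 1.8 μm) at 100 μL/min, with water and acetonitrile each containing 0.1% formic acid. Dead and dwell volumes were 40 μL and 900 μL, and data were collected over 3 months. Retention time was read from computationally picked adduct peaks, each inspected manually.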", "units": {"RP-LC retention time": "s"}, "values": [
      {"smiles": "Cc1ccc2[nH]cc(CCN3CC(C(=O)N4CCCCCC4)CC3=O)c2c1", "note": "(centres undefined)", "RP-LC retention time": 800},
      {"smiles": "Cc1ccc(CNC(=O)C2CCCN2S(=O)(=O)c2cc3c(cc2Cl)NC(=O)CO3)cc1", "note": "(centres undefined)", "RP-LC retention time": 786},
      {"smiles": "CCC(NC(=O)C1CCN(c2cnc3nccnc3c2)CC1)c1cccs1", "note": "(centres undefined)", "RP-LC retention time": 702},
      {"smiles": "CCOc1ccc(CC(=O)N2CCCn3nc(-c4ccc(Cl)cc4)cc3C2)cc1", "RP-LC retention time": 1020},
      {"smiles": "CCn1nccc1-c1cccc(-c2noc(CNS(=O)(=O)c3ccc(Cl)cc3)n2)c1", "RP-LC retention time": 986},
      {"smiles": "Cc1cccc(N2CCN([C@H]3CS(=O)(=O)C[C@@H]3S(=O)(=O)c3ccc(F)cc3)CC2)c1", "RP-LC retention time": 941},
      {"smiles": "Cc1cccc(C(=O)NCCc2c[nH]c3ccc(C)cc23)c1", "RP-LC retention time": 890},
      {"smiles": "COc1ccc(OC)c(NC(=O)C2CCCN(S(=O)(=O)c3cc(-c4noc(C)n4)cs3)C2)c1", "note": "(centres undefined)", "RP-LC retention time": 966},
      {"smiles": "COC1C(=O)N(CC2CC2)C12CCN(S(=O)(=O)Cc1ccccc1)CC2", "note": "(centres undefined)", "RP-LC retention time": 819},
      {"smiles": "C[C@H]1CN(C(=O)Cc2c[nH]c3ccccc23)C[C@@H]1c1nc(-c2cccnc2)no1", "RP-LC retention time": 755},
      {"smiles": "COc1ccc(N(C(=O)Nc2ccccc2OC)C2=NCCC2)cc1Cl", "RP-LC retention time": 1060},
      {"smiles": "CC(=O)N1c2ccc(S(=O)(=O)N3CCCCC3)cc2CC1C(=O)N1CCCC1", "note": "(centres undefined)", "RP-LC retention time": 743},
      {"smiles": "Cc1c(Cl)cccc1NC(=O)N1CCCC(C)(C(=O)NCc2ccccc2)C1", "note": "(centres undefined)", "RP-LC retention time": 1010},
      {"smiles": "CCCC(=O)Nc1nc(-c2ccc3c(c2)NC(=O)CO3)c(C)s1", "RP-LC retention time": 752},
      {"smiles": "O=C(NC1CC1)c1cn(CCC2CCCCN2C(=O)c2ccoc2)nn1", "note": "(centres undefined)", "RP-LC retention time": 641},
      {"smiles": "COc1cccc(NC(=O)C2CCCN(C(=O)C3Sc4ccccc4NC3=O)C2)c1", "note": "(centres undefined)", "RP-LC retention time": 786},
      {"smiles": "Cc1ccc(C)c(N2CCN(S(=O)(=O)c3ccc(-c4nnc(C5CC5)o4)o3)CC2)c1", "RP-LC retention time": 1130},
      {"smiles": "O=S(=O)(c1cc(-c2noc(C3CCCC3)n2)cs1)N1CCCC1", "RP-LC retention time": 1110},
      {"smiles": "CCN(C(=O)c1cc2c(s1)N(CCOC)CCCC2)C(C)C", "RP-LC retention time": 1070},
      {"smiles": "Cc1ccccc1NC(=O)c1cccn1Cc1noc(C2CC2)n1", "RP-LC retention time": 880},
      {"smiles": "O=C(NCc1ccc(N2CCCCC2)cc1)c1cn2c(n1)CSCC2", "RP-LC retention time": 577},
      {"smiles": "COC(=O)Nc1nc(CC(=O)NCc2cn3ccccc3n2)cs1", "RP-LC retention time": 617},
      {"smiles": "CCC1=C(c2ccc(C)cc2)S(=O)(=O)N=C1N1CCC(C(=O)NCc2ccco2)CC1", "RP-LC retention time": 793},
      {"smiles": "CCN1C(=O)COc2ccc(-c3nc(NC(C)=O)sc3C)cc21", "RP-LC retention time": 759},
      {"smiles": "COc1ccc(-c2c(NC(=O)c3cccs3)n(C)c3ccccc3c2=O)cc1", "RP-LC retention time": 668},
      {"smiles": "COc1cccc(-n2c(=O)c3sccc3n(Cc3nc(-c4ccc(OC(C)C)cc4)no3)c2=O)c1", "RP-LC retention time": 1080},
      {"smiles": "Cc1ccc(C(O)CN2CCN(c3ccccc3C)CC2)cc1", "note": "(centres undefined)", "RP-LC retention time": 718},
      {"smiles": "Cn1c(C(=O)NCCC2=CCCCC2)cc2c(=O)oc3ccccc3c21", "RP-LC retention time": 1050},
      {"smiles": "CCC(C)NC(=O)C1CCCN(C(=O)c2cc(-c3ccccn3)n[nH]2)C1", "note": "(centres undefined)", "RP-LC retention time": 611},
      {"smiles": "Cc1nn(-c2ccccc2)c(-n2cccc2)c1CNC(=O)NCc1ccc(F)cc1", "RP-LC retention time": 909},
      {"smiles": "O=C(C1CCN(c2nnc(-c3ccccc3)o2)CC1)N1CCCCCC1", "RP-LC retention time": 810},
      {"smiles": "Cc1cnc(C2CC2)n1CCNC(=O)c1cccn1C", "RP-LC retention time": 579},
      {"smiles": "Cc1nc(CCNC(=O)[C@H]2CCCN2C(=O)c2ccccc2)cs1", "RP-LC retention time": 622},
      {"smiles": "CNc1cc(NS(=O)(=O)c2ccc(N)cc2)nc(NC)n1", "RP-LC retention time": 370},
      {"smiles": "COC(=O)c1ccc(Nc2nc(C)nc3c2CCC3)cc1", "RP-LC retention time": 615},
      {"smiles": "COC(=O)C1=CN(c2ccc(F)cc2)c2cc(F)ccc2S1(=O)=O", "RP-LC retention time": 789},
      {"smiles": "Cc1ccc(N2CCC(NC(=O)Nc3cc(C)cc(C)c3)C2=O)cc1", "note": "(centres undefined)", "RP-LC retention time": 931},
      {"smiles": "COc1ccc(NC(=O)N2c3ccccc3NC3=C(C(=O)CCC3)C2c2ccco2)c(OC)c1", "note": "(centres undefined)", "RP-LC retention time": 816},
      {"smiles": "COc1ccc(-n2c(=O)c(C(=O)NCc3ccc(F)cc3F)c(O)c3cccnc32)cc1", "RP-LC retention time": 1170},
      {"smiles": "O=c1ccn(-c2cccc(F)c2)nc1-c1nc(-c2cccc(Br)c2)no1", "RP-LC retention time": 995},
      {"smiles": "Cc1nc(C)c(C(=O)N2CC(N(CC(C)C)C3CCN(C)CC3)C2)s1", "RP-LC retention time": 567},
      {"smiles": "CCc1nc(-c2csc(S(=O)(=O)N3CCCC(C(=O)NCc4cccnc4)C3)c2)no1", "note": "(centres undefined)", "RP-LC retention time": 660},
      {"smiles": "CNC(=O)C1CCCN(c2nc3ncn(CC(=O)Nc4cccc(C(F)(F)F)c4)c(=O)c3s2)C1", "note": "(centres undefined)", "RP-LC retention time": 704},
      {"smiles": "Cc1cccc(CC(=O)N2C[C@@H]3C[C@H](NC(=O)c4cccs4)[C@H]2C3)c1", "RP-LC retention time": 787}
    ]}
  ]
}
